US6897228B2, “Pyridoxine and pyridoxal analogues: new uses” (Medicure International Inc., priority 2000, dated 2005)

Tested on: male Wistar rats, LAD occlusion and reperfusion
Assay: Rat cardiac ischemia reperfusion model
Type: in vivo
Experimental: Seventy-nine male Wistar rats (200-300 g, Tuck, Rayleigh, Essex, U.K.) were anesthetized with thiopentone sodium (Intraval®, 120 mg/kg i.p.; Rhone-Merrieux, Essex, U.K.). The rats were tracheotomized, intubated and ventilated with a Harvard ventilator (70 strokes/min, tidal volume: 8-10 ml/kg, inspiratory oxygen concentration: 30%). Body temperature was maintained at 38±1° C. The right carotid artery was cannulated and connected to a pressure transducer (Spectramed, P23XL) to monitor mean arterial blood pressure (MAP) and heart rate (HR), which were continuously recorded on a 4-channel Grass 7D polygraph recorder (Grass, Mass., U.S.A.). The right jugular vein was cannulated for the administration of drugs. Subsequently, a lateral thoracotomy was performed and the heart was suspended in a temporary pericardial cradle. A snare occluder was placed around the left anterior descending coronary artery (LAD). After completion of the surgical procedure the animals were allowed to stabilize for 30 min before LAD ligation. The coronary artery was occluded at time 0 by tightening of the occluder. After 25 min of acute myocardial ischemia, the occluder was re-opened to allow the reperfusion for 2 h. Following the 2 h reperfusion period, the coronary artery was re-occluded and Evans Blue dye (1 ml of 2% w/v) was injected into the left ventricle, via the right carotid artery cannula, to distinguish between perfused and non-perfused area at risk (AR) sections of the heart. The Evans Blue solution stains the perfused myocardium, while the occluded vascular bed remains uncolored. The animals were killed with an overdose of anesthetic and the heart excised. It was sectioned into slices of 3-4 mm, the right ventricular wall was removed, and the AR (pink) was separated from the non-ischemic (blue) area. The AR was cut into small pieces and incubated with p-nitroblue tetrazolium (NBT, 0.5 mg/ml) for 40 min at 37° C. In the presence of intact dehydrogenase enzyme systems (viable myocardium), nitro-blue tetrazolium (NBT) forms a dark blue formazan, whilst areas of necrosis lack dehydrogenase activity and therefore fail to stain. Pieces were separated according to staining and weighed to determine the infarct size as a percentage of the weight of the AR.
The following experimental groups were studied: • (1) Sham-operation (no occlusion of the LAD) plus administration of saline (Sham-Saline, 1 ml/kg i.v. n=9). • (2) LAD-occlusion (25 min) and reperfusion (2 h) plus administration of saline (myocardial infarction (“MI”)-Saline; 1 ml/kg i.v. bolus, 5 min prior to LAD occlusion) (n=10). • (3) LAD-occlusion and reperfusion plus administration of XL (25 mg/kg i.v. bolus at 5 min prior to LAD occlusion) (n=10).
All data were expressed as mean±s.e.mean of n observations, where n represented the number of animals studied. Infarct size was analyzed by 1-factorial ANOVA, followed by a Bonferroni's post hoc test for multiple comparisons. Hemodynamic data were analyzed by 2-way ANOVA followed by a Bonferroni's test. A P-value of less than 0.05 was considered to be statistically significant (when compared to Ml-Saline).

[1] = 25 mg/kg i.v. bolus t = −5 mins, Baseline
[2] = 25 mg/kg i.v. bolus, Occlusion 15 mins
[3] = 25 mg/kg i.v. bolus, Occlusion 25 mins
[4] = 25 mg/kg i.v. bolus, Reperfusion 60 mins
[5] = 25 mg/kg i.v. bolus, Reperfusion 120 mins

SMILES: Cc1ncc(CNc2ccc(-c3ccc(C(=N)N)cc3)cc2)c(CO)c1O [Compound XL]
- HR (heart rate) [1]: 443 ± 9 beats per min
- MAP (mean arterial pressure) [1]: 121 ± 7 mmHg
- PRI (pressure rate index) [1]: 54 ± 3 mmHg/min · 10^−3
- infarct size (percentage of the area at risk) (25 mg/kg i.v. bolus, 5 minutes before regional ischemia, P<0.05, MI-Saline 48±3% of the AR): significant reduction
- HR (heart rate) [2]: 435 ± 11 beats per min
- MAP (mean arterial pressure) [2]: 119 ± 6 mmHg
- PRI (pressure rate index) [2]: 52 ± 3 mmHg/min · 10^−3
- HR (heart rate) [3]: 460 ± 10 beats per min
- MAP (mean arterial pressure) [3]: 118 ± 6 mmHg
- PRI (pressure rate index) [3]: 55 ± 3 mmHg/min · 10^−3
- HR (heart rate) [4]: 412 ± 10 beats per min
- MAP (mean arterial pressure) [4]: 89 ± 8 mmHg
- PRI (pressure rate index) [4]: 36 ± 3 mmHg/min · 10^−3
- HR (heart rate) [5]: 414 ± 13 beats per min
- MAP (mean arterial pressure) [5]: 70 ± 7 mmHg
- PRI (pressure rate index) [5]: 29 ± 3 mmHg/min · 10^−3
- fall in MAP compared with MI-rats treated with Saline (25 mg/kg i.v., P>0.05): similar
- fall in PRI compared with MI-rats treated with Saline (25 mg/kg i.v., P>0.05): similar
- effect on HR (rats subjected to regional myocardial ischemia and reperfusion, P>0.05): no significant effect
